The inhibition is the relative decrease from the control value, in per cent.

The results in this text go back to ChEMBL document CHEMBL5653631, “A Potent and Selective ULK1 Inhibitor Suppresses Autophagy and Sensitizes Cancer Cells to Nutrient Stress” (iScience, 2018).

The target in test [1] is 3-phosphoinositide-dependent protein kinase 1 (Homo sapiens) (UniProt O15530). In words: Inhibition of human recombinant PDK1 at 15 nM in presence of ATP by radiometric assay relative to control.
In test [2] the target is Rho-associated protein kinase 1 (Homo sapiens) (UniProt Q13464). In words: Inhibition of human recombinant ROCK1 at 15 nM related to control ULK1.
For test [3], the target named is Calcium/calmodulin-dependent protein kinase type II subunit beta (Homo sapiens) (UniProt Q13554). The test is described as follows: Inhibition of human recombinant CaMK2b at 15 nM in presence of ATP by radiometric assay relative to control.
Calcium/calmodulin-dependent protein kinase type II subunit beta (Homo sapiens), sequence (Q13554 whole entry): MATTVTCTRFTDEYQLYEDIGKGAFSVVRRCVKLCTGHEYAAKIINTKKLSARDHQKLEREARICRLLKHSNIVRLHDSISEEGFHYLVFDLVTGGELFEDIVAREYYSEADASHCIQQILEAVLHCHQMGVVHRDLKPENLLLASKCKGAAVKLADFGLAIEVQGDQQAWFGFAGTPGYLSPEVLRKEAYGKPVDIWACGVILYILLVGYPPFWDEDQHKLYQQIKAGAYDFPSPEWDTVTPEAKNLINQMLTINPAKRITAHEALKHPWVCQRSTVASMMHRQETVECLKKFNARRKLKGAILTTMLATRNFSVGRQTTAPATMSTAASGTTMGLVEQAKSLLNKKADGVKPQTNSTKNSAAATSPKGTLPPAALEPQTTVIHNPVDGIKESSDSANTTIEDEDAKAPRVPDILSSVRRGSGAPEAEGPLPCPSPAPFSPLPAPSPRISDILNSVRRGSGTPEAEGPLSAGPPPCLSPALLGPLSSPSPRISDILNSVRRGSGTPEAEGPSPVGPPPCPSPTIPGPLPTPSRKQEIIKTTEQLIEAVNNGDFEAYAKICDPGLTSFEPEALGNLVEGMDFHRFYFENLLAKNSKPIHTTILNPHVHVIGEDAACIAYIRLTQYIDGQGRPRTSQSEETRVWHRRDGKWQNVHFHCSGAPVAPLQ
Test [4] has as its target Non-receptor tyrosine-protein kinase TYK2 (Homo sapiens) (UniProt P29597). In words: Inhibition of human recombinant TYK2 at 15 nM related to control ULK1.
Test [5] concerns the target T1, Serine/threonine-protein kinase Chk1 (Homo sapiens) (UniProt O14757).
T1 sequence (whole entry): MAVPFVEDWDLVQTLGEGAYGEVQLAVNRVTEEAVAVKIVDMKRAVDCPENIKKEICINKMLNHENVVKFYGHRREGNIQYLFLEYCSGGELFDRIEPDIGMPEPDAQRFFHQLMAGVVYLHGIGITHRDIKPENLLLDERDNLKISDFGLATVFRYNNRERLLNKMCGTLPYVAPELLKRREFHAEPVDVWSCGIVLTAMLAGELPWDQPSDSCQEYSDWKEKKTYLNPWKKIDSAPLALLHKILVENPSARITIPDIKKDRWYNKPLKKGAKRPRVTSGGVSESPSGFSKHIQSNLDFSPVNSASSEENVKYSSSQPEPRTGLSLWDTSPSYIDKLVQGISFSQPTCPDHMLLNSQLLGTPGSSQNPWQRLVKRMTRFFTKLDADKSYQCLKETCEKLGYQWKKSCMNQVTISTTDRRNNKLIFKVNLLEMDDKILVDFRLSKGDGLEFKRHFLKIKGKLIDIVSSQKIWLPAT
In words: Inhibition of human recombinant CHK1 at 15 nM related to control ULK1.

In test [6] the target is Calcium/calmodulin-dependent protein kinase type 1B (Homo sapiens) (UniProt Q6P2M8). The test is described as follows: Inhibition of human recombinant CaMK1b at 15 nM related to control ULK1.
Calcium/calmodulin-dependent protein kinase type 1B (Homo sapiens), sequence (Q6P2M8 whole entry, canonical isoform): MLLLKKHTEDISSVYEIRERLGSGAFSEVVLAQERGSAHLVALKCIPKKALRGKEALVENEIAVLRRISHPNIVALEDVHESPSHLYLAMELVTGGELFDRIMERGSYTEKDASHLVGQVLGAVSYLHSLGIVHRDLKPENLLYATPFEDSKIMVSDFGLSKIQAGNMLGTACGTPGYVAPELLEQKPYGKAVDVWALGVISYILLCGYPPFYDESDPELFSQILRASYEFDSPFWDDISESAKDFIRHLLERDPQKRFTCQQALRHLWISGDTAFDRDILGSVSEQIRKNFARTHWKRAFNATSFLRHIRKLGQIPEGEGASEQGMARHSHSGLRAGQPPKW
Test [7] has as its target Phosphorylase b kinase gamma catalytic chain, skeletal muscle/heart isoform (Homo sapiens) (UniProt Q16816). In words: Inhibition of human recombinant PHKg1 at 15 nM related to control ULK1.
Test [8] deals with T2, MAP kinase-activated protein kinase 5 (Homo sapiens) (UniProt Q8IW41).
T2 sequence (whole entry): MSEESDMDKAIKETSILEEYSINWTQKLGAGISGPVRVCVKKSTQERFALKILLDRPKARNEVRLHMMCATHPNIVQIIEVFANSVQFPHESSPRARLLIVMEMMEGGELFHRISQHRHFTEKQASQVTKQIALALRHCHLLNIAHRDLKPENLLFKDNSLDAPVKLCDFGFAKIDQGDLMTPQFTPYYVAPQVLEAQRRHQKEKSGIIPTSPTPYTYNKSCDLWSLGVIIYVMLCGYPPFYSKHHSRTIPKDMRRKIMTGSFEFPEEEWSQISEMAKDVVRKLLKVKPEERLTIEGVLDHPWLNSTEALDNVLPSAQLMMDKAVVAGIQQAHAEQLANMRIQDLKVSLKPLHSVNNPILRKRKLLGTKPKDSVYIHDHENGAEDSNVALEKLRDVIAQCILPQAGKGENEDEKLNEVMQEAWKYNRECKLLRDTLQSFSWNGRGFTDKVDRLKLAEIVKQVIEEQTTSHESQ
In words: Inhibition of human recombinant MAPKAPK5 at 40 nM in presence of ATP by radiometric assay relative to control.

The target in test [9] is Misshapen-like kinase 1 (Homo sapiens) (UniProt Q8N4C8). In words: Inhibition of human recombinant MINK at 40 nM related to control ULK1.
Misshapen-like kinase 1 (Homo sapiens), sequence (Q8N4C8 whole entry, looked up): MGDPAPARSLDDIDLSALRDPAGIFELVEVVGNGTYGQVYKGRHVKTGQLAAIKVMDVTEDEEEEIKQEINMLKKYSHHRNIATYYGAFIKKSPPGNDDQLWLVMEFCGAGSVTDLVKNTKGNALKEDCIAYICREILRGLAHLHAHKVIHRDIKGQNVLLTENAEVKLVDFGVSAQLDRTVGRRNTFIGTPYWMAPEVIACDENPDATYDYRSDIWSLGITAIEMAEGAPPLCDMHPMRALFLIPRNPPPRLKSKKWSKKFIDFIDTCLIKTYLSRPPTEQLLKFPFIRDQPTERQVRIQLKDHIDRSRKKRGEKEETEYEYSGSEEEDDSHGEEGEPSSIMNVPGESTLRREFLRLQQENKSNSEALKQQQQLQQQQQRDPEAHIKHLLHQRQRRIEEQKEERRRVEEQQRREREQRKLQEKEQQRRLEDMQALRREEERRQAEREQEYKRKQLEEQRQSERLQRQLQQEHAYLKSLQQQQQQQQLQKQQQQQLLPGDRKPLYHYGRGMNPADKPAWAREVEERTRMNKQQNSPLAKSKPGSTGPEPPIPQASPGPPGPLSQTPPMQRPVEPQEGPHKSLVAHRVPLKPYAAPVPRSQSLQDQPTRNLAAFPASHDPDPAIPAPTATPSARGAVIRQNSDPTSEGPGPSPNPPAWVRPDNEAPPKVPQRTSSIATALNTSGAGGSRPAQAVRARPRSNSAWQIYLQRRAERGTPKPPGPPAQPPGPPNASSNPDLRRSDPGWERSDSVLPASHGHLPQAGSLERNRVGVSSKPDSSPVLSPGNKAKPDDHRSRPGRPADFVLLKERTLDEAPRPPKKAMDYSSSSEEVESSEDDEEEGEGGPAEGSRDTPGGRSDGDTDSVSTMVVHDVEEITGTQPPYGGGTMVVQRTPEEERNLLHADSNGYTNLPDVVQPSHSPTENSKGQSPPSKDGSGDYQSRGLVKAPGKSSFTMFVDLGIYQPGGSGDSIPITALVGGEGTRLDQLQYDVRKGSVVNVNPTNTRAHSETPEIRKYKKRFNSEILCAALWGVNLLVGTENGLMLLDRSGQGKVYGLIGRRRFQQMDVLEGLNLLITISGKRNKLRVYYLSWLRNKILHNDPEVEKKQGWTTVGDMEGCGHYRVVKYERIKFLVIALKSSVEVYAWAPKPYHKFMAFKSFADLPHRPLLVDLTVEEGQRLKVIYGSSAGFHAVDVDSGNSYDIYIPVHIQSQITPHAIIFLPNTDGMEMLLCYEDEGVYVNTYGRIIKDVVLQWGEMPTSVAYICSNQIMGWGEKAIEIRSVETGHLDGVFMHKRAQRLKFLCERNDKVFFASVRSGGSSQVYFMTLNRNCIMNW
Test [10] deals with SRSF protein kinase 1 (Homo sapiens) (UniProt Q96SB4). In words: Inhibition of human recombinant SRPK1 at 40 nM in presence of ATP by radiometric assay relative to control.
The target of test [11] is Interleukin-1 receptor-associated kinase 1 (Homo sapiens) (UniProt P51617). The test is described as follows: Inhibition of human recombinant IRAK1 at 40 nM in presence of ATP by radiometric assay relative to control.
Interleukin-1 receptor-associated kinase 1 (Homo sapiens), sequence (P51617 whole entry, looked up): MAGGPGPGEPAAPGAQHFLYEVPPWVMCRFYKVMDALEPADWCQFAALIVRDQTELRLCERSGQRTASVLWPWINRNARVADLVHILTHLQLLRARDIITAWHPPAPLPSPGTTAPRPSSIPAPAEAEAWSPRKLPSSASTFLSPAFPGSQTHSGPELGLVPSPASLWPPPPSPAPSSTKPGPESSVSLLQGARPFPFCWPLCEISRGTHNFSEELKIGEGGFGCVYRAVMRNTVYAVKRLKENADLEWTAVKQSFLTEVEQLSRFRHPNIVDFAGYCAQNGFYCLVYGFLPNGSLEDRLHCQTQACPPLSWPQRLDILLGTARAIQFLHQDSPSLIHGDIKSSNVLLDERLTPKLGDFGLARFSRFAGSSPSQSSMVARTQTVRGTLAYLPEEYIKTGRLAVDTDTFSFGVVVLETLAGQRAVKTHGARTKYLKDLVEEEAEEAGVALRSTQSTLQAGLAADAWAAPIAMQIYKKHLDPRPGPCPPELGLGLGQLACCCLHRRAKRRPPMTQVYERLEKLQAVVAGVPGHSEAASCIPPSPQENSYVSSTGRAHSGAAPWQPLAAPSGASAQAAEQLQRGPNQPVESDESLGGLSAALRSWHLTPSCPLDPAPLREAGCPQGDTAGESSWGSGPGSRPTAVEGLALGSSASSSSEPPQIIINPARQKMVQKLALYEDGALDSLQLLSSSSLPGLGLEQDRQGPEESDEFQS
Test [12] has as its target Dual specificity protein kinase CLK1 (Homo sapiens) (UniProt P49759). The test is described as follows: Inhibition of human recombinant CLK1 at 500 nM in presence of ATP by radiometric assay relative to control.
Test [13] deals with T3, Testis-specific serine/threonine-protein kinase 1 (Homo sapiens) (UniProt Q9BXA7).
T3 sequence (whole entry): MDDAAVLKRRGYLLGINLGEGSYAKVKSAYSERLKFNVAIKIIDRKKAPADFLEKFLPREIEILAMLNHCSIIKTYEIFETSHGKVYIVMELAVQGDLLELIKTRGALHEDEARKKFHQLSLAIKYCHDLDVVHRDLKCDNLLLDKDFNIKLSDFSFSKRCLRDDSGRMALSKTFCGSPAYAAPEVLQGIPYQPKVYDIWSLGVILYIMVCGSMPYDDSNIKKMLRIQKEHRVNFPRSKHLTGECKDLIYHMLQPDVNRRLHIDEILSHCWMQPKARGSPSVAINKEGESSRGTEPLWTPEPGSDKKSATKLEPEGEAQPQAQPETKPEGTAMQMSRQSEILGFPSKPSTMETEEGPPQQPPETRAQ
In words: Inhibition of human recombinant TSSK1 at 500 nM related to control ULK1.

Test [14] has as its target Calcium/calmodulin-dependent protein kinase type II subunit delta (Homo sapiens) (UniProt Q13557). The test is described as follows: Inhibition of human recombinant CaMK2d at 500 nM related to control ULK1.
Test [15] deals with Wee1-like protein kinase 2 (Homo sapiens) (UniProt P0C1S8). In words: Inhibition of human recombinant Wee1B at 500 nM in presence of ATP by radiometric assay relative to control.
Wee1-like protein kinase 2 (Homo sapiens), sequence (P0C1S8 whole entry, looked up): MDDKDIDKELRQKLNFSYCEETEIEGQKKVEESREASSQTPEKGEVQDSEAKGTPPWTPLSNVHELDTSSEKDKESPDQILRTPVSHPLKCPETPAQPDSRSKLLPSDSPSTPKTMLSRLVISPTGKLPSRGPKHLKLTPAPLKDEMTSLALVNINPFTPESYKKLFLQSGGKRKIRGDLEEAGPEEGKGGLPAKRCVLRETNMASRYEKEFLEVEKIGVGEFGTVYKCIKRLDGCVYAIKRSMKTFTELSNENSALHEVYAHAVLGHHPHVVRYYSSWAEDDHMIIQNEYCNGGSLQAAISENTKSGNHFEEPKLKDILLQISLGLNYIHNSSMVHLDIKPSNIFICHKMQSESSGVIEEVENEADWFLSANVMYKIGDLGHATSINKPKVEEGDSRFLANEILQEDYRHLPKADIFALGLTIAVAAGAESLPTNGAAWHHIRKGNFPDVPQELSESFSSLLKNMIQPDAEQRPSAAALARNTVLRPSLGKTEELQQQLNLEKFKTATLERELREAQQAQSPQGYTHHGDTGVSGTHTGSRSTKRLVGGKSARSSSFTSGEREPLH

Phosphorylase b kinase gamma catalytic chain, skeletal muscle/heart isoform (Homo sapiens), sequence (Q16816 whole entry, looked up, canonical isoform): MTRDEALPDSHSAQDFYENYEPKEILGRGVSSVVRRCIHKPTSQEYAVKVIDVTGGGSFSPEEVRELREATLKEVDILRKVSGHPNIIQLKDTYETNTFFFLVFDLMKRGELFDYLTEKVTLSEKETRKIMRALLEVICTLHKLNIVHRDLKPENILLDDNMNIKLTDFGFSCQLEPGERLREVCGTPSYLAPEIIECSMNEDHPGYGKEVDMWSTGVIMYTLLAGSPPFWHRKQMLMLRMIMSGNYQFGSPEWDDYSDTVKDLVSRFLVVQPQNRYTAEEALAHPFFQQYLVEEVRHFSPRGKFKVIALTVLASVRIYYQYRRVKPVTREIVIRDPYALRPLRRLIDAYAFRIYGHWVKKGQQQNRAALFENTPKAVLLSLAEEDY
Calcium/calmodulin-dependent protein kinase type II subunit delta (Homo sapiens), sequence (Q13557 whole entry): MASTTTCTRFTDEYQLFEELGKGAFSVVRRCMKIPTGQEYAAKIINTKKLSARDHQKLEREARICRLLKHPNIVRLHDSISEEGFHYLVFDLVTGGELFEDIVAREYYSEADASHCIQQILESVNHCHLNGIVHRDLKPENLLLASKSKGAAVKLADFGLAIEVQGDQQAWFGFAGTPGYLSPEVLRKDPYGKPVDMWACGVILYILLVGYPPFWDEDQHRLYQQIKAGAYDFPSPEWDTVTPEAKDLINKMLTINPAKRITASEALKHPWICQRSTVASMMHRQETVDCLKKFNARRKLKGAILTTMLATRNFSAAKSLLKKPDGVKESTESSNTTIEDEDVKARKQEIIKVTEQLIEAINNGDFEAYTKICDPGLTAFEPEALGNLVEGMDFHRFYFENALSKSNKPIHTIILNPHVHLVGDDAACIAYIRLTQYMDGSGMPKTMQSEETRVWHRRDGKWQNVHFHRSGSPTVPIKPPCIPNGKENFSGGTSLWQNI
Dual specificity protein kinase CLK1 (Homo sapiens), sequence (P49759 whole entry, looked up): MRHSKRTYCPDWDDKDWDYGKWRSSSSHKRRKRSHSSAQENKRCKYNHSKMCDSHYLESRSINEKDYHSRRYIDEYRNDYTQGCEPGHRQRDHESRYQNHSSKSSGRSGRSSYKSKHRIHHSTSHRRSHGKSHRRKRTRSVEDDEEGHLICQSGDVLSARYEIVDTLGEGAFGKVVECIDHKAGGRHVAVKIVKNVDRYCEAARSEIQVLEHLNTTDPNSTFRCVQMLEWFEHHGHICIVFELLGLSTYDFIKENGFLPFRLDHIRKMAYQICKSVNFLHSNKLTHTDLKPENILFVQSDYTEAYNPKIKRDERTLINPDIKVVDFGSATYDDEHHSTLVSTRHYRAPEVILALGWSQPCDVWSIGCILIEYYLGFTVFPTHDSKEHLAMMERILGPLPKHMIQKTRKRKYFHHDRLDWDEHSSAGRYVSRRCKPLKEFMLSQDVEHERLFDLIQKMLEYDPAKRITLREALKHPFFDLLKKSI

As for `CC(C)[C@H](NC(=O)c1cc(-c2cnn3cc(-c4ccc(OCCN5CCCCC5)cc4)cnc23)cs1)C(F)(F)F`, the inhibition in [1] was found to be 6%; in test [3], 10%. For the same molecule, the fold change (FC) in [2] is 0.09; in [4] it was 0.02; in [5], 0; in test [6], 0; in [7], 0.58.

As to `O=C(N[C@@H](C1CC1)C(F)(F)F)c1cc(-c2cnn3cc(-c4ccc(F)cc4)cnc23)cs1`, the inhibition in test [8] was 0%; in test [10] it was 10%; in test [11], 7%. In addition, in test [9], the fold change (FC) is 0.1.

Consider `CNC(=O)c1ccccc1Oc1nc(Nc2cc(OC)c(OC)c(OC)c2)ncc1Br`, for which the inhibition was found to be 5% in [12] and 2% in test [15]. Also, the fold change (FC) in test [13] amounted to 0; in test [14], 0.12.
